These compounds were tested against recombinant human NSD2 (amino acids 2-end) with N-terminal His tag (Homo sapiens (Human), UniProt O96028) (assay: NSD2 inhibitory activity, modified RBC HotSpot HMT Assay). Conditions: NSD2 2 nM, chicken oligonucleosomes 0.05 mg/mL, 3H-SAM 1 μM, 1 hour at 30° C.
Type: biochemical
Method: Exemplary compounds were tested for NSD2 inhibitory activity using a modified RBC HotSpot HMT Assay.
A reaction mixture was prepared by adding oligonucleosomes from chicken (0.05 mg/mL) to freshly prepared reaction buffer containing 50 mM Tris-HCl (pH 8.5), 50 mM NaCl, 5 mM MgCl2, 0.01% Brij35, 1 mM DTT, and 1% DMSO followed by the addition of recombinant human NSD2 (amino acids 2-end) with N-terminal His tag (2 nM; GenBank Accession No. NM_001042424; MW=155.5 kDa; expressed in Sf9 insect cells) and gentle mixing. The test compounds were diluted in DMSO (to 10 mM), and added to the reaction mixture in nanoliter amounts by using Acoustic Technology (Echo 550, LabCyte Inc. Sunnyvale, CA) and incubated for 20 minutes at room temperature. […] The reaction mixture was delivered to filter paper, and the methylated substrate was quantified by scintillation counting.
Data analysis was performed using Excel and GraphPad Prism software for IC50 curve fits. For additional information on the histone methyltransferase assay, see, for example, Horiuchi K Y, et al., “Assay Development for Histone Methyltransferases,” Assay Drug Dev Technol.

Chain of recombinant human NSD2 (amino acids 2-end) with N-terminal His tag (O96028 2-1365 limits assumed): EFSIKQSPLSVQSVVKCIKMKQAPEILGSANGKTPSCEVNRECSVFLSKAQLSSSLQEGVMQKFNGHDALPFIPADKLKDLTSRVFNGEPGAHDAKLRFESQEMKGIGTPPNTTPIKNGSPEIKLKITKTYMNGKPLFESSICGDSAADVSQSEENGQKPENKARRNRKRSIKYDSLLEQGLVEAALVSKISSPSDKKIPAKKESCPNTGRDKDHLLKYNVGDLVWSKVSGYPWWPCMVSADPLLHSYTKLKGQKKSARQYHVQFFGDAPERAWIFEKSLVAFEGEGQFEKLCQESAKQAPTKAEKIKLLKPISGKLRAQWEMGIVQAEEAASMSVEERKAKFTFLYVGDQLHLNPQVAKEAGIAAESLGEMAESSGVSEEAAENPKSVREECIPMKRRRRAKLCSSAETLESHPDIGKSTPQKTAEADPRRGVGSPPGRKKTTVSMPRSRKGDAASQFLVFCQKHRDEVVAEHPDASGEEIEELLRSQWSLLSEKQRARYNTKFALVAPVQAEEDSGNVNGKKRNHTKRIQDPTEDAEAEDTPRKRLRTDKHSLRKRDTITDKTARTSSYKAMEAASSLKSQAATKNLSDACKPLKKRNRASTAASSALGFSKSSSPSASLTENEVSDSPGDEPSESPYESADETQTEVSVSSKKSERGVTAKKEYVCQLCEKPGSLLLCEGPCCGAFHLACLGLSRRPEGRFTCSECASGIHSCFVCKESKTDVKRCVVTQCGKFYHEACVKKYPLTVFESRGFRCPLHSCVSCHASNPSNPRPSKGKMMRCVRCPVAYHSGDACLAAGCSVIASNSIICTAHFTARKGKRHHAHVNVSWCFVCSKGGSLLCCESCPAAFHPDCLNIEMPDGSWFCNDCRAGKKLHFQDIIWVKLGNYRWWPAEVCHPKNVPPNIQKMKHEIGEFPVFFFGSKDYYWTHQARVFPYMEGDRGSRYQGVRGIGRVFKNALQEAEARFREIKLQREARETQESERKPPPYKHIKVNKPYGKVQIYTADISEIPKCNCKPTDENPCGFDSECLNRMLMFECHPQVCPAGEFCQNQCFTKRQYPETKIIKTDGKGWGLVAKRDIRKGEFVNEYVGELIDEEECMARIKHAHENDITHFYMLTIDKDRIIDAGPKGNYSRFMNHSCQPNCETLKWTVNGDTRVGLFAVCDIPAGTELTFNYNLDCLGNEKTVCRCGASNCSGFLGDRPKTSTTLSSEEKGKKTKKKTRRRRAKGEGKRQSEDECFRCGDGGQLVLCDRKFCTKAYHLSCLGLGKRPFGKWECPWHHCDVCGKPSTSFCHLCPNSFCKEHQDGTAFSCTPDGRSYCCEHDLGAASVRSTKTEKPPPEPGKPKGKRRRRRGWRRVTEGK

| Compound | IC50 |
| --- | --- |
| Nc1ncnc2c1ncn2Cc1cc(-c2cc(F)c(OCCCCNc3cccc4c3C(=O)N(C3CCC(=O)NC3=O)C4=O)cc2F)ncc1N1CCC[C@](N)([C@H](O)C(F)F)C1 (stereo partly drawn) [I-61, 4-((4-(4-(5-((R)-3-amino-3-((S)-2,2-difluoro-1-hydroxyethyl)piperidin-1-yl)-4-((6-amino-9H-purin-9-yl)methyl)pyridin-2-yl)-2,5-difluorophenoxy)butyl)amino)-2-(2,6-dioxopiperidin-3-yl)isoindoline-1,3-dione] | < 50 nM |
| Nc1ncnc2c1ncn2Cc1cc(-c2cc(F)c(OCCCCCNc3cccc4c3C(=O)N(C3CCC(=O)NC3=O)C4=O)cc2F)ncc1N1CCC[C@](N)([C@H](O)C(F)F)C1 (stereo partly drawn) [I-62, 4-((5-(4-(5-((R)-3-amino-3-((S)-2,2-difluoro-1-hydroxyethyl)piperidin-1-yl)-4-((6-amino-9H-purin-9-yl)methyl)pyridin-2-yl)-2,5-difluorophenoxy)pentyl)amino)-2-(2,6-dioxopiperidin-3-yl)isoindoline-1,3-dione] | 50 to 100 nM |
| Nc1ncnc2c1ncn2Cc1cc(-c2cc(F)c(OCCCCCCNc3cccc4c3C(=O)N(C3CCC(=O)NC3=O)C4=O)cc2F)ncc1N1CCC[C@](N)([C@H](O)C(F)F)C1 (stereo partly drawn) [I-63, 4-((6-(4-(5-((R)-3-amino-3-((S)-2,2-difluoro-1-hydroxyethyl)piperidin-1-yl)-4-((6-amino-9H-purin-9-yl)methyl)pyridin-2-yl)-2,5-difluorophenoxy)hexyl)amino)-2-(2,6-dioxopiperidin-3-yl)isoindoline-1,3-dione] | 100 to 1000 nM |
| Nc1ncnc2c1ncn2Cc1cc(-c2cc(F)c(OCC(=O)Nc3cccc4c3C(=O)N(C3CCC(=O)NC3=O)C4=O)cc2F)ncc1N1CCC[C@](N)([C@H](O)C(F)F)C1 (stereo partly shown) [I-64] | < 50 nM |
| Nc1ncnc2c1ncn2Cc1cc(-c2cc(F)c(OCC(=O)NCCNc3cccc4c3C(=O)N(C3CCC(=O)NC3=O)C4=O)cc2F)ncc1N1CCC[C@](N)([C@H](O)C(F)F)C1 (stereo partly drawn) [I-65, 2-(4-(5-((R)-3-amino-3-((S)-2,2-difluoro-1-hydroxyethyl)piperidin-1-yl)-4-((6-amino-9H-purin-9-yl)methyl)pyridin-2-yl)-2,5-difluorophenoxy)-N-(2-((2-(2,6-dioxopiperidin-3-yl)-1,3-dioxoisoindolin-4-yl)amino)ethyl)acetamide] | < 50 nM |
| Nc1ncnc2c1ncn2Cc1cc(-c2cc(F)c(OCC(=O)NCCCNc3cccc4c3C(=O)N(C3CCC(=O)NC3=O)C4=O)cc2F)ncc1N1CCC[C@](N)([C@H](O)C(F)F)C1 (stereo partly drawn) [I-66, 2-(4-(5-((R)-3-amino-3-((S)-2,2-difluoro-1-hydroxyethyl)piperidin-1-yl)-4-((6-amino-9H-purin-9-yl)methyl)pyridin-2-yl)-2,5-difluorophenoxy)-N-(3-((2-(2,6-dioxopiperidin-3-yl)-1,3-dioxoisoindolin-4-yl)amino)propyl)acetamide] | < 50 nM |
| COc1cc(F)c(-c2cc(Cn3cnc4c(NCCCCCNc5cccc6c5C(=O)N(C5CCC(=O)NC5=O)C6=O)ncnc43)c(N3CCC[C@](N)([C@H](O)C(F)F)C3)cn2)cc1F (stereo partly drawn) [I-76, 4-((5-((9-((5-((R)-3-amino-3-((S)-2,2-difluoro-1-hydroxyethyl)piperidin-1-yl)-2-(2,5-difluoro-4-methoxyphenyl)pyridin-4-yl)methyl)-9H-purin-6-yl)amino)pentyl)amino)-2-(2,6-dioxopiperidin-3-yl)isoindoline-1,3-dione] | > 1000 nM |
| COc1cc(F)c(-c2cc(Cn3cnc4c(NCCCCCCNc5cccc6c5C(=O)N(C5CCC(=O)NC5=O)C6=O)ncnc43)c(N3CCC[C@](N)([C@H](O)C(F)F)C3)cn2)cc1F (stereo partly drawn) [I-77, 4-((6-((9-((5-((R)-3-amino-3-((S)-2,2-difluoro-1-hydroxyethyl)piperidin-1-yl)-2-(2,5-difluoro-4-methoxyphenyl)pyridin-4-yl)methyl)-9H-purin-6-yl)amino)hexyl)amino)-2-(2,6-dioxopiperidin-3-yl)isoindoline-1,3-dione] | > 1000 nM |
| COc1c(F)cc(-c2cc(Cn3cnc4c(NCCCCCCNc5cccc6c5C(=O)N(C5CCC(=O)NC5=O)C6=O)ncnc43)c(N3CCC[C@](N)(c4ccccn4)C3)cn2)cc1F (stereo partly drawn) [I-80, 4-((6-((9-((5-((R)-3-amino-3-(pyridin-2-yl)piperidin-1-yl)-2-(3,5-difluoro-4-methoxyphenyl)pyridin-4-yl)methyl)-9H-purin-6-yl)amino)hexyl)amino)-2-(2,6-dioxopiperidin-3-yl)isoindoline-1,3-dione] | > 1000 nM |
| COc1c(F)cc(-c2cc(Cn3cnc4c(NCCCCCCCNc5cccc6c5C(=O)N(C5CCC(=O)NC5=O)C6=O)ncnc43)c(N3CCC[C@](N)(c4ccccn4)C3)cn2)cc1F (stereo partly drawn) [I-82, 4-((7-((9-((5-((R)-3-amino-3-(pyridin-2-yl)piperidin-1-yl)-2-(3,5-difluoro-4-methoxyphenyl)pyridin-4-yl)methyl)-9H-purin-6-yl)amino)heptyl)amino)-2-(2,6-dioxopiperidin-3-yl)isoindoline-1,3-dione] | > 1000 nM |
| Cc1ncsc1-c1ccc(CNC(=O)[C@@H]2C[C@@H](O)CN2C(=O)[C@@H](NC(=O)CCOCCOCCOCCOc2cc(F)c(-c3cc(Cn4cnc5c(N)ncnc54)c(N4CCC[C@](N)([C@H](O)C(F)F)C4)cn3)cc2F)C(C)(C)C)cc1 [I-84] | 100 to 1000 nM |
| Cc1ncsc1-c1ccc(CNC(=O)[C@@H]2C[C@@H](O)CN2C(=O)[C@@H](NC(=O)CCCCCCCCCCCOc2cc(F)c(-c3cc(Cn4cnc5c(N)ncnc54)c(N4CCC[C@](N)([C@H](O)C(F)F)C4)cn3)cc2F)C(C)(C)C)cc1 [I-85] | 100 to 1000 nM |

The remaining lines, values ahead:

| IC50 | Compound |
| --- | --- |
| < 50 nM | Nc1ncnc2c1ncn2Cc1cc(-c2cc(F)c(OCCCCNc3cccc4c3C(=O)N(C3CCC(=O)NC3=O)C4=O)c(F)c2)ncc1N1CCC[C@](N)(c2ccccn2)C1 (stereo partly drawn) [I-67, 4-((4-(4-(5-((R)-3-amino-3-(pyridin-2-yl)piperidin-1-yl)-4-((6-amino-9H-purin-9-yl)methyl)pyridin-2-yl)-2,6-difluorophenoxy)butyl)amino)-2-(2,6-dioxopiperidin-3-yl)isoindoline-1,3-dione] |
| > 1000 nM | Nc1ncnc2c1ncn2Cc1cc(-c2cc(F)c(OCCCCNc3cccc4c3C(=O)N(C3CCC(=O)NC3=O)C4=O)c(F)c2)ncc1N1CCC[C@@](N)(c2ccccn2)C1 (stereo partly drawn) [I-68, 4-((4-(4-(5-((S)-3-amino-3-(pyridin-2-yl)piperidin-1-yl)-4-((6-amino-9H-purin-9-yl)methyl)pyridin-2-yl)-2,6-difluorophenoxy)butyl)amino)-2-(2,6-dioxopiperidin-3-yl)isoindoline-1,3-dione] |
| < 50 nM | Nc1ncnc2c1ncn2Cc1cc(-c2cc(F)c(OCCCCCNc3cccc4c3C(=O)N(C3CCC(=O)NC3=O)C4=O)c(F)c2)ncc1N1CCC[C@](N)(c2ccccn2)C1 (stereo partly drawn) [I-69, 4-((5-(4-(5-((R)-3-amino-3-(pyridin-2-yl)piperidin-1-yl)-4-((6-amino-9H-purin-9-yl)methyl)pyridin-2-yl)-2,6-difluorophenoxy)pentyl)amino)-2-(2,6-dioxopiperidin-3-yl)isoindoline-1,3-dione] |
| > 1000 nM | Nc1ncnc2c1ncn2Cc1cc(-c2cc(F)c(OCCCCCNc3cccc4c3C(=O)N(C3CCC(=O)NC3=O)C4=O)c(F)c2)ncc1N1CCC[C@@](N)(c2ccccn2)C1 (stereo partly shown) [I-70] |
| < 50 nM | Nc1ncnc2c1ncn2Cc1cc(-c2cc(F)c(OCCCCCCNc3cccc4c3C(=O)N(C3CCC(=O)NC3=O)C4=O)c(F)c2)ncc1N1CCC[C@](N)(c2ccccn2)C1 (stereo partly drawn) [I-71, 4-((6-(4-(5-((R)-3-amino-3-(pyridin-2-yl)piperidin-1-yl)-4-((6-amino-9H-purin-9-yl)methyl)pyridin-2-yl)-2,6-difluorophenoxy)hexyl)amino)-2-(2,6-dioxopiperidin-3-yl)isoindoline-1,3-dione] |
| 100 to 1000 nM | COc1c(F)cc(-c2cc(Cn3cnc4c(NCCCCCNc5cccc6c5C(=O)N(C5CCC(=O)NC5=O)C6=O)ncnc43)c(N3CCC[C@](N)(c4ccccn4)C3)cn2)cc1F (stereo partly drawn) [I-79, 4-((5-((9-((5-((R)-3-amino-3-(pyridin-2-yl)piperidin-1-yl)-2-(3,5-difluoro-4-methoxyphenyl)pyridin-4-yl)methyl)-9H-purin-6-yl)amino)pentyl)amino)-2-(2,6-dioxopiperidin-3-yl)isoindoline-1,3-dione] |
| 50 to 100 nM | COc1c(F)cc(-c2cc(Cn3cnc4c(NCCCCCCNc5cccc6c5C(=O)N(C5CCC(=O)NC5=O)C6=O)ncnc43)c(N3CCC[C@@](N)(c4ccccn4)C3)cn2)cc1F (stereo partly drawn) [I-81, 4-((6-((9-((5-((S)-3-amino-3-(pyridin-2-yl)piperidin-1-yl)-2-(3,5-difluoro-4-methoxyphenyl)pyridin-4-yl)methyl)-9H-purin-6-yl)amino)hexyl)amino)-2-(2,6-dioxopiperidin-3-yl)isoindoline-1,3-dione] |
